# Experimental data from patent US10285982B2, “3-(1H-pyrrolo[2,3-B]pyridin-2-yl)-1H-pyrazolo[3,4-C]pyridines and therapeutic uses thereof” (Samumed, LLC, priority 2015, dated 2019).
# How the values were obtained:
# Format in all cases: cell-based
# [1] = system: Wnt activity (Sp5-Luc reporter, SW480 colon carcinoma cells); assay: Wnt activity screening assay, Sp5-Luc reporter gene in SW480 cells; conditions: Homo sapiens, overnight incubation
# From the text: The screening assay for Wnt activity is described as follows. Reporter cell lines can be generated by stably transducing cancer cell lines (e.g., colon cancer) or primary cells (e.g., IEC-6 intestinal cells) with a lentiviral construct that includes a Wnt-responsive promoter driving expression of the firefly luciferase gene.
# SW480 colon carcinoma cells were transduced with a lentiviral vector expressing luciferase with a human Sp5 promoter consisting of a sequence of eight TCF/LEF binding sites. SW480 cells stably expressing the Sp5-Luc reporter gene and a hygromycin resistance gene were selected by treatment with 150 μg/mL of hygromycin for 7 days. These stably transduced SW480 cells were expanded in cell culture and used for all further screening activities. Each compound was dissolved in DMSO as a 10 mM stock and used to prepare compound source plates. Serial dilution (1:3, 10-point dose-response curves starting from 10 μM) and compound transfer was performed using the ECHO 550 (Labcyte, Sunnyvale, Calif.) into 384-well white solid bottom assay plates (Greiner Bio-One) with appropriate DMSO backfill for a final DMSO concentration of 0.1%. For Sp5-Luc reporter gene assays, the cells were plated at 4,000 cells/well in 384-well plates with medium containing 1% fetal bovine serum and incubated overnight at 37° C. and 5% CO2. Following incubation, 20 μl of BrightGlo luminescence reagent (Promega) was added to each well of the 384-well assay plates. The plates were placed on an orbital shaker for 2 min and then luminescence was quantified using the Envision (Perkin Elmer) plate reader. Readings were normalized to DMSO only treated cells, and normalized activities were utilized for EC50 calculations using the dose-response log (inhibitor) vs. response-variable slope (four parameters) nonlinear regression feature available in GraphPad Prism 5.0 (or Dotmatics). For EC50 of >10 μM, the percent inhibition at 10 μM is provided.
# SW480 colon cancer cells = assay: Cell viability assay (CellTiter-Blue); conditions: Homo sapiens, 96 h, four days
# Protocol: Representative compounds were screened using the following assay procedure to assess the effect on cell viability as described below.
# Each compound was dissolved in DMSO as a 10 mM stock and used to prepare compound source plates. Serial dilution (1:3, 8-point dose-response curves from 10 μM to 0.0045 μM) and compound transfer was performed using the ECHO 550 (Labcyte, Sunnyvale, Calif.) into 96-well clear bottom, black-walled plates (Corning-Costar).
# Approximately 2×10^3 SW480 colon cancer cells were seeded into each well and allowed to incubate in the presence or absence of compound for four days at 37° C./5% CO2. Eight replicates of DMSO-treated cells served as controls and cells treated with compound were performed in duplicate.
# After incubation, 20 μL of CellTiter-Blue (Promega) was added to each well allowed to incubate for approximately 3 hours. This reagent was a buffered solution which contains resazurin, metabolically active cells were able to reduce rezarurin (blue) into resorufin (pink) which was highly fluorescent. This measured fluorescence was used as a readout for cell viability.
# After incubation, the plates were read at Ex 560 nm Em 590 nm (Cytation 3, BioTek). Dose-response curves were generated and EC50 concentration values were calculated using non-linear regression curve fit in the GraphPad Prism (San Diego, Calif.) or Dotmatics' Studies Software (Bishops Stortford, UK). For EC50 of >10 μM, the percent inhibition at 10 μM is provided.
# [2] = system: primary human fibroblasts derived from IPF patients (LL29 cells) treated with TGF-β1; assay: Inhibition of fibrotic process, αSMA staining in TGF-β1 treated LL29 fibroblasts; conditions: Fibroblast, 96 h, % αSMA positive LL29 cells, TGF-β1 20 ng/mL, 4 days
# From the text: Representative compounds were screened using primary human fibroblasts (derived from IPF patients) treated with TGF-β1 to determine their ability to inhibit the fibrotic process.
# Primary human fibroblasts derived from IPF patients (LL29 cells) [^1Xiaoqiu Liu, et. al., “Fibrotic Lung Fibroblasts Show Blunted Inhibition by cAMP Due to Deficient cAMP Response Element-Binding Protein Phosphorylation”, Journal of Pharmacology and Experimental Therapeutics (2005), 315(2), 678-687; ^2Watts, K. L., et. al., “RhoA signaling modulates cyclin D1 expression in human lung fibroblasts; implications for idiopathic pulmonary fibrosis”, Respiratory Research (2006), 7(1), 88] were obtained from American Type Culture Collection (ATCC) and expanded in F12 medium supplemented with 15% Fetal Bovine Serum and Penicillin/Streptomycin.
# Each compound was dissolved in DMSO as a 10 mM stock and used to prepare compound source plates. Serial dilution (1:2, 11-point dose-response curves from 10 μM to 1.87 nM) and compound transfer was performed using the ECHO 550 (Labcyte, Sunnyvale, Calif.) into 384-well clear bottom assay plates (Greiner Bio-One) with appropriate DMSO backfill for a final DMSO concentration of 0.1%. LL29 cells are plated at 1,500 cells/well in 80 μL/well F12 medium supplemented with 1% Fetal Bovine Serum. One hour after addition of the cells, TGF-β1 (Peprotech; 20 ng/mL) was added to the plates to induce fibrosis (ref. 1 and 2 above). Wells treated with TGF-β1 and containing DMSO were used as controls. Cells were incubated at 37° C. and 5% CO2 for 4 days. Following incubation for 4 days, SYTOX green nucleic acid stain (Life Technologies [Thermo Fisher Scientific]) was added to the wells at a final concentration of 1 μM and incubated at room temperature for 30 min. Cells were then fixed using 4% formaldehyde (Electron Microscopy Sciences), washed 3 times with PBS followed by blocking and permeabilization using 3% Bovine Serum Albumin (BSA; Sigma) and 0.3% Triton X-100 (Sigma) in PBS. Cells were then stained with antibody specific to α-smooth muscle actin (αSMA; Abcam) (ref. 1 and 2 above) in 3% Bovine Serum Albumin (BSA; Sigma) and 0.3% Triton X-100 (Sigma) in PBS, and incubated overnight at 4° C. Cells were then washed 3 times with PBS, followed by incubation with Alexa Flor-647 conjugated secondary antibody (Life Technologies [Thermo Fisher Scientific]) and DAPI at room temperature for 1 hour. Cells were then washed 3 times with PBS and plates were sealed for imaging. αSMA staining was imaged by excitation at 630 nm and emission at 665 nm and quantified using the Compartmental Analysis program on the CellInsight CX5 (Thermo Scientific). Dead or apoptotic cells were excluded from analysis based on positive SYTOX green staining. % of total cells positive for αSMA were counted in each well and normalized to the average of 11 wells treated with TGF-β1 on the same plate using Dotmatics' Studies Software. The normalized averages (fold change over untreated) of 3 replicate wells for each compound concentration were used to create dose-responses curves and EC50 values were calculated using non-linear regression curve fit in the Dotmatics' Studies Software. For EC50 of >10 μM, the percent inhibition at 10 μM is provided.
# IL-6 (THP-1 cells) = assay: IL-6 inhibition in LPS-stimulated THP-1 cells (HTRF); conditions: Homo sapiens; IL-6 in THP-1 cells, LPS 500 ng/mL, 22 hours
# Protocol: Human monocyte cell line (THP-1 cells; Catalog # TIB-202, ATCC, Manassas, Va.) were cultured in Roswell Park Memorial Institute (RPMI) 1640 Medium (Catalog #21870-100, Buffalo, N.Y.) with 1% L-glutamine, 1% HEPES, 1% Sodium Pyruvate, 2% Sodium Bicarbonate supplemented with 100 units/mL penicillin, 50 μg/mL streptomycin, 2-mercaptoethanol (0.05 mM) [basal medium] and 10% fetal bovine serum (Catalog #16140089, Life Technologies, Carlsbad, Calif.) at 37° C. and 5% CO2.
# THP-1 cells were cultured in basal media with 1% FBS for 24 hours before the start of the assay. Each compound was dissolved in DMSO as a 10 mM stock and used to prepare compound source plates. Serial dilution (1:3, 10-point dose-response curves starting from 10 μM) and compound transfer was performed using the ECHO 550 (Labcyte, Sunnyvale, Calif.) into 384-well white low volume assay plates (Greiner Bio-One) with appropriate DMSO backfill for a final DMSO concentration of 0.1%. THP-1 cells were plated at 5000 cells/well in the 384-well plates and incubated at 37° C. for 2 h. 500 ng/mL of LPS was added after 2 hours and cells were incubated for another 22 hours at 37° C. Plates were spun in a centrifuge for 1 minute at […] and a mixture of anti-IL6 XL665, and anti-IL6 Cryptate diluted in reconstitution buffer (Cisbio Inc.) was added to each well. Following incubation for 3 hrs at room temperature, Homogeneous Time-Resolved Fluorescence (HTRF) was measured using the Envision (Perkin Elmer) at 665 nm and […]. The ratio of fluorescence at 665 nm to 620 nm was used as a readout for IL6 quantification. All samples were processed in duplicate. Readings were normalized to DMSO treated cells and normalized activities were utilized for EC50 calculations using the dose-response log (inhibitor) vs. response-variable slope (four parameters) nonlinear regression feature available in GraphPad Prism 5.0 (or Dotmatics). For EC50 of >10 μM, the percent inhibition at 10 μM is provided.
Compound,EC50 [1] [nM],EC50 (SW480 colon cancer cells) [nM],EC50 [2] [nM],EC50 (IL-6 (THP-1 cells)) [nM]
"c1csc(-c2ccnc3[nH]c(-c4n[nH]c5cnc(-c6cncc(CN7CCCCC7)c6)cc45)cc23)c1 [Compound 351, 5-(5-(Piperidin-1-ylmethyl)pyridin-3-yl)-3-(4-(thiophen-2-yl)-1H-pyrrolo [2,3-b]pyridin-2-yl)-1H-pyrazolo[3,4-c]pyridine]",6900,4100,2560,182
"c1ccc(-c2cc3c(-c4cc5c(-c6cccs6)ccnc5[nH]4)n[nH]c3cn2)nc1 [Compound 364, 5-(Pyridin-2-yl)-3-(4-(thiophen-2-yl)-1H-pyrrolo[2,3-b]pyridin-2-yl)-1H-pyrazolo[3,4-c]pyridine]",630,706,403,1010
"Cc1ncc(-c2cc3c(-c4cc5c(-c6cccs6)ccnc5[nH]4)n[nH]c3cn2)n1C [Compound 701, 5-(1,2-Dimethyl-1H-imidazol-5-yl)-3-(4-(thiophen-2-yl)-1H-pyrrolo[2,3-b]pyridin-2-yl)-1H-pyrazolo[3,4-c]pyridine]",1060,1220,928,988
